Experimental data: US4882349A, “Pyrrolacetic amides having antiinflammatory activity” (priority 1982, dated 1989)
Read-outs that look alike come from different tables or passages of the source.

How the values were obtained:
[1] = system: brewers' yeast-induced hyperthermia; assay: antipyretic activity, brewers' yeast-induced hyperthermia; type: in vivo, albino male Wistar rats
Protocol: The animals were caged under the same conditions as those described in the preceding tests. Five hours following […], determined by a rectal probe connected to a YSI thermometer (73 ATP model, Yellow Springs Instrument Company) were selected for the experiment. The animals were then randomized into groups of 10 and the compounds under examination and the vehicle were administered via the oral and parenteral routes testing each dose in two groups. Body temperature was determined at one, two and three hours after administration of the substances. […]

gastric lesions = type: in vivo, male Wistar rats; details: 4 consecutive days; for gastric damage index: I=mean no. of lesions+mean of severity+% incidence/10; for mean severity: scale 0 (no lesion) to 5 (perforations)
Protocol: Male Wistar rats weighing 180 g were randomized into groups of 10. Three doses of each compound were administered. One group received the vehicle alone (10 ml/kg b.w.). Each dose was given orally for four days consecutively and the rats were sacrificed on the fifth day for necropsy. The ulcerogenic effect was evaluated by the following scale:
(1) each haemorrhagic point at least 1 mm in diameter was scored as 1 lesion,
(2) haemorrhagic points less than 1 mm in diameter were scored in the following manner:
(c) 20 to 29=three lesions
By means of this scale it was possible to obtain the gastric damage index:
I=mean no. of lesions+mean of severity+% incidence/10

solubility = type: physicochemical
[2] = system: phenyl-p-quinone-induced writhing (abdominal contractions); assay: phenylquinone-induced writhing test, oral administration 1-24 h before phenyl-quinone (duration of analgesia); type: in vivo, male Wistar rats
Protocol: Male Wistar rats weighing 110±5 g were caged for 10 days at 22±1° C. and given a balanced diet with free access to water. Twenty-four hours before the experiment the animals were randomized into groups of 10 and fasted for 14 hours but with free access to water. Each dose was tested in 3 groups of rats. […] alone (0.5% carboxymethyl-cellulose in physiological saline) in the control animals, each rat was given 2 ml of a 5% absolute ethanol aqueous solution containing 0.36% of phenyl-p-quinone (Sigma Chemical Company) in order to provoke writhings. Fifteen minutes after administration of phenyl-p-quinone the number of contractions were counted for 20 minutes. The inhibiting effect of the compounds under examination on the abdominal contractions induced by phenyl-p-quinone was calculated by the following formula: % protection= [formula]

Structure (SMILES): Cc1ccc(C(=O)c2ccc(CC(=O)NCC(=O)O)n2C)cc1 [Compound 1-c, 1-methyl-5-p-toluoylpyrrole-2-acetamidoacetic acid]
- % Temperature decrease ([1]; 50 mg/Kg i.p., 1 h): 20.0%
- % Temperature decrease ([1]; 50 mg/Kg i.p., 2 h): 21.9%
- % Temperature decrease ([1]; 50 mg/Kg i.p., 3 h): 36.0%
- % Temperature decrease ([1]; 50 mg/Kg per os, 1 h): 15.0%
- % Temperature decrease ([1]; 50 mg/Kg per os, 2 h): 23.0%
- % Temperature decrease ([1]; 50 mg/Kg per os, 3 h): 32.0%
- % Temperature decrease ([1]; 75 mg/Kg i.p., 1 h): 19.0%
- % Temperature decrease ([1]; 75 mg/Kg i.p., 2 h): 32.6%
- % Temperature decrease ([1]; 75 mg/Kg i.p., 3 h): 45.2%
- % Temperature decrease ([1]; 75 mg/Kg per os, 1 h): 16.5%
- % Temperature decrease ([1]; 75 mg/Kg per os, 2 h): 30.7%
- % Temperature decrease ([1]; 75 mg/Kg per os, 3 h): 42.1%
- % Temperature decrease ([1]; 100 mg/Kg i.p., 1 h): 35.0%
- % Temperature decrease ([1]; 100 mg/Kg i.p., 2 h): 49.1%
- % Temperature decrease ([1]; 100 mg/Kg i.p., 3 h): 65.7%
- % Temperature decrease ([1]; 100 mg/Kg per os, 1 h): 27.1%
- % Temperature decrease ([1]; 100 mg/Kg per os, 2 h): 31.2%
- % Temperature decrease ([1]; 100 mg/Kg per os, 3 h): 57.9%
- % incidence/10 (head is drawing 38) (gastric lesions; 50 mg/Kg orally): 7
- mean no. of lesions (gastric lesions; 50 mg/Kg orally): 1
- gastric damage index (gastric lesions; 50 mg/Kg orally): 9.5
- mean severity (gastric lesions; 50 mg/Kg orally): 1.5
- % incidence/10 (head is drawing 38) (gastric lesions; 100 mg/Kg orally): 8
- mean no. of lesions (gastric lesions; 100 mg/Kg orally): 2
- gastric damage index (gastric lesions; 100 mg/Kg orally): 12
- mean severity (gastric lesions; 100 mg/Kg orally): 2
- % incidence/10 (head is drawing 38) (gastric lesions; 200 mg/Kg orally): 9
- mean no. of lesions (gastric lesions; 200 mg/Kg orally): 2.5
- gastric damage index (gastric lesions; 200 mg/Kg orally): 13.5
- mean severity (gastric lesions; 200 mg/Kg orally): 2
- Solubility (solubility): soluble in alkali

Structure (SMILES): COc1ccccc1OC(=O)CNC(=O)Cc1ccc(C(=O)c2ccc(C)cc2)n1C [Compound 1-d, 1-methyl-5-p-toluoylpyrrole-2-acetamidoacetic acid guaiacyl ester]
- % Protection ([2]; 10 mg/Kg oral, 1 h before phenyl-quinone): 55.7%
- % Protection ([2]; 10 mg/Kg oral, 2 h before phenyl-quinone): 43.3%
- % Protection ([2]; 10 mg/Kg oral, 4 h before phenyl-quinone): 40.1%
- % Protection ([2]; 10 mg/Kg oral, 6 h before phenyl-quinone): 44.0%
- % Protection ([2]; 10 mg/Kg oral, 8 h before phenyl-quinone): 32.0%
- % Protection ([2]; 10 mg/Kg oral, 16 h before phenyl-quinone): 12.1%
- % Protection ([2]; 10 mg/Kg oral, 24 h before phenyl-quinone): 10.0%
- % Protection ([2]; 20 mg/Kg oral, 1 h before phenyl-quinone): 78.1%
- % Protection ([2]; 20 mg/Kg oral, 2 h before phenyl-quinone): 80.6%
- % Protection ([2]; 20 mg/Kg oral, 4 h before phenyl-quinone): 70.5%
- % Protection ([2]; 20 mg/Kg oral, 6 h before phenyl-quinone): 66.3%
- % Protection ([2]; 20 mg/Kg oral, 8 h before phenyl-quinone): 71.0%
- % Protection ([2]; 20 mg/Kg oral, 16 h before phenyl-quinone): 23.6%
- % Protection ([2]; 20 mg/Kg oral, 24 h before phenyl-quinone): 25.0%
- % Protection ([2]; 50 mg/Kg oral, 1 h before phenyl-quinone): 86.4%
- % Protection ([2]; 50 mg/Kg oral, 2 h before phenyl-quinone): 87.0%
- % Protection ([2]; 50 mg/Kg oral, 4 h before phenyl-quinone): 81.5%
- % Protection ([2]; 50 mg/Kg oral, 6 h before phenyl-quinone): 76.8%
- % Protection ([2]; 50 mg/Kg oral, 8 h before phenyl-quinone): 75.0%
- % Protection ([2]; 50 mg/Kg oral, 16 h before phenyl-quinone): 60.7%
- % Protection ([2]; 50 mg/Kg oral, 24 h before phenyl-quinone): 64.0%
- % Temperature decrease ([1]; 50 mg/Kg i.p., 1 h): 16.0%
- % Temperature decrease ([1]; 50 mg/Kg i.p., 2 h): 23.0%
- % Temperature decrease ([1]; 50 mg/Kg i.p., 3 h): 37.5%
- % Temperature decrease ([1]; 50 mg/Kg per os, 1 h): 14.0%
- % Temperature decrease ([1]; 50 mg/Kg per os, 2 h): 22.0%
- % Temperature decrease ([1]; 50 mg/Kg per os, 3 h): 31.6%
- % Temperature decrease ([1]; 75 mg/Kg i.p., 1 h): 22.1%
- % Temperature decrease ([1]; 75 mg/Kg i.p., 2 h): 33.4%
- % Temperature decrease ([1]; 75 mg/Kg i.p., 3 h): 39.8%
- % Temperature decrease ([1]; 75 mg/Kg per os, 1 h): 18.5%
- % Temperature decrease ([1]; 75 mg/Kg per os, 2 h): 23.4%
- % Temperature decrease ([1]; 75 mg/Kg per os, 3 h): 29.1%
- % Temperature decrease ([1]; 100 mg/Kg i.p., 1 h): 28.1%
- % Temperature decrease ([1]; 100 mg/Kg i.p., 2 h): 37.2%
- % Temperature decrease ([1]; 100 mg/Kg i.p., 3 h): 60.4%
- % Temperature decrease ([1]; 100 mg/Kg per os, 1 h): 22.0%
- % Temperature decrease ([1]; 100 mg/Kg per os, 2 h): 42.5%
- % Temperature decrease ([1]; 100 mg/Kg per os, 3 h): 59.0%
- % incidence/10 (head is drawing 38) (gastric lesions; 50 mg/Kg orally): 6
- mean no. of lesions (gastric lesions; 50 mg/Kg orally): 1.5
- gastric damage index (gastric lesions; 50 mg/Kg orally): 8.5
- mean severity (gastric lesions; 50 mg/Kg orally): 1
- % incidence/10 (head is drawing 38) (gastric lesions; 100 mg/Kg orally): 9
- mean no. of lesions (gastric lesions; 100 mg/Kg orally): 2
- gastric damage index (gastric lesions; 100 mg/Kg orally): 12.5
- mean severity (gastric lesions; 100 mg/Kg orally): 1.5
- % incidence/10 (head is drawing 38) (gastric lesions; 200 mg/Kg orally): 9
- mean no. of lesions (gastric lesions; 200 mg/Kg orally): 2
- gastric damage index (gastric lesions; 200 mg/Kg orally): 13
- mean severity (gastric lesions; 200 mg/Kg orally): 2
- Solubility (solubility): soluble in the common organic solvents
